Source: US9732226B2, “Azo compound, ink containing azo compound, and display and electronic paper containing the ink” (MITSUBISHI CHEMICAL CORPORATION, priority 2012, dated 2017)
In brackets after ≈: the same amount, converted by molar mass.

How the values were obtained:
Format in all cases: physicochemical
[1] = Absorption spectrum of n-decane solution (absorption maximum wavelength, molar absorbance coefficient, color); details: for ε / λmax / ε (molar absorbance coefficient): n-decane solution; for ε / λmax: same manner as for Example Compound 1; for Maximum Absorption Wavelength: 1 mg in 100 ml n-decane, quartz cell; for Color Tone: color of the solution of the compound in n-decane; for ε (molar absorbance coefficient): at absorption maximum wavelength
Procedure: <Method for Measurement of Absorption Maximum Wavelength λMax, Molar Absorbance Coefficient ε>
One mg of each of Example Compounds 1 to 4 and Comparative Example Compound was dissolved in 100 ml of n-decane solution to prepare a solution thereof, and using a quartz cell, the absorption spectrum thereof was measured with Hitachi Spectrophotometer U-4100. The resultant spectrum of the compound gave the absorption maximum wavelength λmax (nm) and the molar absorbance coefficient ε(L·mol^−1·cm^−1) thereof.

[2] = Solubility C in n-decane at 5° C. (saturated solution, absorbance); details: for εC / ε · C: product of ε and solubility C in n-decane at 5° C.; for C: solubility in n-decane at 5° C.; for solubility at 24 h: organic solvent or mixture, thermodynamic from solid, saturation solubility in n-decane at 5° C.
Procedure: <Method for Measurement of Solubility C>
The solubility C of Example Compounds 1 to 4 and Comparative Example Compound in n-decane solution was measured as follows.
The compound was added to the solvent until the undissolved residue remained, and ultrasonically treated at 30° C. for 30 minutes. After left at 5° C. for 24 hours, this was centrifuged and filtered through a 0.1 μm-filter using an ultracompact centrifuge (centrifugal force, 5200×g). The resultant saturated solution was diluted to have a suitable concentration, and using a quartz cell having an optical length of 10 mm, the absorption spectrum thereof was measured with Hitachi Spectrophotometer U-4100. From the relationship between the absorbance at the absorption maximum wavelength λmax (nm) and the previously-determined molar absorbance coefficient ε([…]) thereof, the concentration of each compound was determined, and the solubility C (mol·L^−1) at 5° C. and εC (cm^−1) thereof were calculated.

[3] = Relative permittivity of solvent; details: 22° C., measurement frequency 1 kHz
Procedure: (§1) <Method for Measurement of Relative Permittivity of Solvent> The solvent was sandwiched between opposed parallel-plate ITO electrode-attached glass substrates having an electrode spacing of 50 μm, and using LCR Meter ZN2371 (manufactured by NF Corporation), the equivalent parallel capacitance thereof was measured at a measurement temperature of 22° C. and at a frequency of 1 kHz, given a test signal voltage of 5 V. Through calculation according to the following equation, the relative permittivity of the solvent was determined. Relative Permittivity=(equivalent parallel capacitance)×(electrode spacing)/(electrode area)/vacuum permittivity(ε0) <Method for Measurement of Solubility of Solvent in Water>

[4] = Solubility of solvent in water; details: pure water, thermodynamic from solid, 25° C.
Procedure: as §1, with “The” for “<Method for Measurement of Relative Permittivity of Solvent> The”
30 g of pure water and 8 g of the solvent were put into a 110 ml-vial, and shaken in a thermostat bath at 25° C. at 200 shake/min for 4 hours. After thus shaken, the liquid was centrifuged (6000×g, 5 minutes), the aqueous layer was sampled, and the concentration of the dissolved solvent was quantified through gas chromatography.
For a mixed solvent comprising two or more different types of solvents, the solubility in water was determined by multiplying the solubility in water of each solvent constituting the mixed solvent by the molar fraction of each solvent, followed by totaling the resultant data. […]

| SMILES | ε [1] [L/mol/cm] | λmax [1] [nm] | εC [2] [cm⁻¹] | C [2] [mol/L] | Maximum Absorption Wavelength [1] [nm] | Color Tone [1] | ε (molar absorbance coefficient) [1] | solubility at 24 h [2] [mM] | ε · C [2] | relative permittivity [3] | solubility at 4 h [4] [µg/mL] |
| --- | --- | --- | --- | --- | --- | --- | --- | --- | --- | --- | --- |
| CCCCC(CC)CNc1ccc(NCC(CC)CCCC)c2c1C(=O)c1ccc(C(=O)OCC(C)C)cc1C2=O (stereo not drawn) [Blue Compound A, reference compound] | 19000 | 668 | 3200 | 0.170 | – | – | – | – | – | – | – |
| CCCCCCCCCC [n-decane] | – | – | – | – | – | – | – | – | – | 2.0 | ≤ 1 |
| C=CCn1c(N=Nc2ccc(N(CCC)CCC)cc2NC(C)=O)nc(C#N)c1C#N [Comparative Example Compound, reference compound] | – | – | – | – | 512 | red | 34,000 L · mol^−1 · cm^−1 | ≤ 0.01 | 10 or less cm^−1 | – | – |
| CCCCc1nn(C(C)(C)C)c(O)c1N=Nc1ccc(N=Nc2ccccc2)cc1 [Yellow Compound A, reference compound] | 25000 | 417 | 1900 | 0.076 | – | – | – | – | – | – | – |

Other lines, results leading:

| ε [1] [L/mol/cm] | λmax [1] [nm] | εC [2] [cm⁻¹] | C [2] [mol/L] | Maximum Absorption Wavelength [1] [nm] | Color Tone [1] | ε (molar absorbance coefficient) [1] | solubility at 24 h [2] [mM] | ε · C [2] | relative permittivity [3] | solubility at 4 h [4] [µg/mL] | SMILES |
| --- | --- | --- | --- | --- | --- | --- | --- | --- | --- | --- | --- |
| – | – | – | – | 584 | violet | 80,000 L · mol^−1 · cm^−1 | 20 (≈ 11.9 mg/mL) | 1,600 cm^−1 | – | – | CCCCC(CC)CN(CC(CC)CCCC)c1ccc(N=Nc2c(C#N)cc(C(F)(F)F)cc2C#N)c(NC(C)=O)c1 (stereo not drawn) [Example Compound 1] |
| – | – | – | – | 585 | violet | 75,000 L · mol^−1 · cm^−1 | 350 (≈ 224 mg/mL) | 26,000 cm^−1 | – | – | CCCCC(=O)Nc1cc(N(CC(CC)CCCC)CC(CC)CCCC)ccc1N=Nc1c(C#N)cc(C(F)(F)F)cc1C#N (stereo not drawn) [Example Compound 3] |
| – | – | – | – | 591 | violet | 80,000 L · mol^−1 · cm^−1 | 160 (≈ 112 mg/mL) | 13,000 cm^−1 | – | – | CCCCC(CC)COC(=O)c1cc(C#N)c(N=Nc2ccc(N(CC(CC)CCCC)CC(CC)CCCC)cc2NC(=O)CC)c(C#N)c1 (stereo not drawn) [Example Compound 2] |
| 4600 | 530 | 3900 | 0.086 | – | – | – | – | – | – | – | CCCCC(CC)CN(CC(CC)CCCC)c1ccc(N=Nc2snc(CC)c2C#N)c(C)c1 (stereo not drawn) [Red Compound A] |
| – | – | – | – | 590 | violet | 80,000 L · mol^−1 · cm^−1 | 75 (≈ 51.4 mg/mL) | 6,000 cm^−1 | – | – | CCCCC(CC)COC(=O)c1cc(C#N)c(N=Nc2ccc(N(CC(CC)CCCC)CC(CC)CCCC)cc2NC(C)=O)c(C#N)c1 (stereo not drawn) [Example Compound 4] |
